Test results taken from PMC12557367, ““Precision on Two Wheels”–Structural Refinement of ^64Cu- and ^68Ga-Labeled Bicyclic Peptides Targeting Nectin‑4 for Improved Tumor Imaging: From Preclinical Development to First-in-Human Application” (Journal of Medicinal Chemistry, 2025).
Numbered stars: 1 amine (or outer) side, 2 acyl side, 3 side chain; on linkers, the order of the positions; unused ones are H or OH. Bridge positions count the residues as written; N and C are the ends. Square brackets hold non-standard residues; d marks the D form. Peptide text beside a SMILES is read from it. * marks the point of attachment. TATA = O=C(CC[*:1])N1CN(C(=O)CC[*:2])CN(C(=O)CC[*:3])C1; X1 = O=C(O)CN1CCN(CC(=O)O)CCN([C@H](CCC(=O)*)C(=O)O)CC1; 1Nal = N[C@@H](Cc1cccc2ccccc12)C(=O)O; 2Nal = N[C@@H](Cc1ccc2ccccc2c1)C(=O)O; Hyp = O=C(O)[C@@H]1C[C@@H](O)CN1; hArg = N=C(N)NCCCC[C@H](N)C(=O)O; SeMet = C[Se]CC[C@H](N)C(=O)O; hSer = N[C@@H](CCO)C(=O)O

What was measured:
[1] = biological target: human serum albumin (HSA) (Homo sapiens, UniProt P02768); format: in vitro ADME
Chain of human serum albumin (HSA) (P02768 25-609): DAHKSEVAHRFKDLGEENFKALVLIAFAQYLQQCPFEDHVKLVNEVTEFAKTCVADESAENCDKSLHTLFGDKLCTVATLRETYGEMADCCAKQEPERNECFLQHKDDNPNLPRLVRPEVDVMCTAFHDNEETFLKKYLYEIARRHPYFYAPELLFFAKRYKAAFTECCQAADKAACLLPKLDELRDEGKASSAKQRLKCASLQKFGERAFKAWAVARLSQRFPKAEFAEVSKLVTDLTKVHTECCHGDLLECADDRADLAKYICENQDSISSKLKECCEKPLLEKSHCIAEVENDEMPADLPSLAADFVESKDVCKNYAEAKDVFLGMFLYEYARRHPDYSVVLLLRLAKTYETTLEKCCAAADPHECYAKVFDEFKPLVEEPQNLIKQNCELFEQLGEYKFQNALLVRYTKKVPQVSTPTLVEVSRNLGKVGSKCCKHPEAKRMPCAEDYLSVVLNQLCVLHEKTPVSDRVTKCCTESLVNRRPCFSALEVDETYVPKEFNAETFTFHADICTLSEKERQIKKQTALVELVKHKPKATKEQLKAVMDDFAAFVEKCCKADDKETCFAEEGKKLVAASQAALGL
Text: page 20: S20 Figure S11: Assessment of plasma protein and HSA binding for [64Cu]Cu-1e and [64Cu]Cu-4 by ultrafiltration […] PBS), and undiluted human plasma. B) Plot of “percentage of retained activity in filter” = f([HSA]) for [64Cu]Cu-4 with nonlinear regression according to the Morrison equation ( total […] labeling). For details on the experimental method and regression analysis see ref. 1. PBS HSA Plasma 0% 20% 40% 60% 80% 47 64 50 percentage of retained activity in filter 102 103 104 105 106 107 0 20 40 60 80 100 [HSA] (nM) percentage of retained activity in filter […] A B (1 picture or pasted object on this page, not shown here)

[2] = n-Octanol/PBS distribution coefficient (logD 7.4); format: physicochemical
Description: The determination of logD 7.4 was performed in triplicate. A sample of the ^64Cu/^68Ga-labeled compound containing ≈1 MBq in a volume of 1 μL was added to a 1.5 mL Eppendorf tube containing 400 μL of PBS (pH 7.4) and 400 μL of n-Octanol (the phases were presaturated with each other). The tube was vortexed vigorously for 1 min and then centrifuged at 16,100g for 4 min to separate the phases. For sampling from the aqueous phase, the pipette tip was discharged while passing through the octanol layer. Then, the sample was taken within the aqueous phase. Any residual liquid was carefully removed by moving the tip along the inner wall of an Eppendorf tube. The radioactivity in a defined volume of each layer was measured (ISOMED 2100). The distribution coefficient was expressed as the logarithm of the ratio of counts per minute (cpm) measured in the n-Octanol phase to the cpm measured in the PBS phase.

[3] = tested on: HT-1376-derived tumor xenograft model; test: Small animal PET/CT imaging; parameters: species or system mice; conditions: mouse, in vivo
How it was run: (§1)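 NMRI nude mice bore subcutaneous HT-1376 xenografts (5 × 10^6 cells in 50% Matrigel), imaged at ~200 mm^3 tumour volume. Radioligand (molar activity 25 MBq/nmol; ~9 MBq, ≈0.46 nmol) injected i.v. via tail vein, with 75 nmol blocking substance co-injected for blocking; dynamic 2 h PET from injection plus CT for attenuation correction.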

[4] = biological target: T1, recombinant human nectin-4 (Homo sapiens, UniProt Q96NY8); test: FA-based competitive binding assay with probe 1a; conditions: for Hill coefficient n: competitive binding curve, variable slope
T1 construct: close to the value determined for the complete extracellular domain of nectin-4 (0.94 nM); purchased R&D Systems 2659-N4
T1 sequence (Q96NY8 32-349 limits assumed): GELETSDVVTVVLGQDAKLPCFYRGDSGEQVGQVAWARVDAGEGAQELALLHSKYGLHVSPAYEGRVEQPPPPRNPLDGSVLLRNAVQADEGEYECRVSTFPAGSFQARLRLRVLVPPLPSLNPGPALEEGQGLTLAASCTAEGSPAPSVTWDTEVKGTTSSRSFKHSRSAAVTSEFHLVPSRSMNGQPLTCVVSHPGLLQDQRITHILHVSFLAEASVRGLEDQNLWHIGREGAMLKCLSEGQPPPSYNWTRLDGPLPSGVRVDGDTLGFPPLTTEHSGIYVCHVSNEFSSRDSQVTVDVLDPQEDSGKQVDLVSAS

[5] = biological target: T2, immobilized human nectin-4 (Homo sapiens, UniProt Q96NY8); test: SPR analysis of binding kinetics; conditions: ±SEM; for kon: HBS-P+ pH 7.4, 25 °C, read-out: k on (SPR, *10^6 M^–1 s^–1); for koff: pH 7.4, HBS-P+ pH 7.4, 25 °C, read-out: k off (SPR, *10^–3 s^–1)
T2 construct: close to the value determined for the complete extracellular domain of nectin-4 (0.94 nM); purchased R&D Systems 2659-N4
T2 sequence (Q96NY8 32-349 limits assumed): T1 sequence (Q96NY8 32-349 limits assumed)
Description: For this purpose, recombinant human nectin-4 was covalently immobilized on a CM5 sensor chip by EDC/NHS coupling. For analyses, the buffer composition (HBS-P+, pH 7.4) was similar to that of the FA assay; however, DMSO was completely omitted (1% DMSO for the FA assay).
The SPR analyses were carried out on a Biacore T200 (GE Healthcare, Chicago, IL, USA) at 25 °C using CM5 sensor chips (Cytiva) and HBS-P+ as running buffer (Cytiva) at a flow of 30 μL/min unless otherwise specified and a data collection rate of 10 Hz. All flow cells (FC) were normalized, and functionalization was performed using an amine coupling Kit (Cytiva). […] Binding analyses were performed by a single-cycle kinetic on both FC. Two start-up cycles were performed at the beginning of each experimental set, comprising the injection of bicyclic peptide (50 nM) and analysis on both FC, followed by regeneration. Binding analysis for the bicyclic peptides was performed by consecutive injection of five increasing concentrations (120 s contact time for each concentration), followed by 600 s dissociation time and analysis on both FC. The regeneration was performed by sequential injection of 10 mM NaOAc (pH 5.5) for 60 s, washing the needle using HBS-P+, injection of 10 mM NaOAc (pH 5.5) for 60 s, 600 s waiting, four injections of HBS-P+ (60 s), and a final 600 s waiting for stabilization. Blank runs using only buffer (HBS-P+) instead of the sample were carried out to obtain double-referenced chromatograms. Binding analyses were performed unless otherwise stated in a concentration range between 0.16–100 nM and 1.6–1000 nM (5-fold dilution series) and analyzed in triplicate. The data were analyzed using the Biacore Evaluation software 3.2.1. […] Data were fitted to a 1:1 binding model.

[6] = Chromatographic hydrophobicity index at immobilized artificial membrane (CHI IAM7.4) by HPLC; format: physicochemical; conditions: nonlabeled peptide, pH 7.4
Description: Consequently, the CHI IAM7.4 values indicate that unfavorable pharmacokinetic behavior due to nonspecific binding is not to be expected.
All commercial reagents and solvents were used without further purification, unless otherwise specified. […] The purity of compound 5, which bears selenomethionine, was lower due to the lability to oxidation (as discussed above). The HPLC-based determination of chromatographic hydrophobicity indices at an immobilized artificial membrane was performed as previously described according to the method developed by Valko et al.

HT-1376 cells = test: Saturation binding assay on intact cells; format: cell-based, human; conditions: ^64Cu-labeled ligand, intact HT-1376 cells, 60 min, PBS wash; apparent; ±SD
Description: For the saturation binding assay, total and nonspecific binding were determined as described above using 10 different radioligand concentrations ([…]) prepared by serial 1:1 dilution. Plots of “total binding” = f(radioligand) were analyzed by nonlinear regressions using the model of “one site-total, accounting for ligand depletion” as implemented in GraphPad Prism, and Plots of “nonspecific binding” = f(radioligand) were analyzed by linear regressions.

[7] = Oxidation stability in H2O2 (radio-HPLC)
Description: To avoid a too rapid degradation of radiolabeled peptides, a low H2O2 concentration of 0.0012% was chosen. […] In this context, there are three further thioether functionalities in each peptide due to the cyclization of the Cys residues with TATA. In Figure , the curves for the time-dependent degradation of the intact radioligands are depicted, from which the respective half-lives were calculated.
The stability toward oxidizing conditions was assessed with H2O2. For this purpose, the radioligands (2 nmol, 48 μL of labeling mixture) were treated with H2O2 (2 μL of 0.03%, final concentration of 0.0012%) at ambient temperature. At distinct time points (3, 5, and 7 h), an aliquot of 2 μL was withdrawn and diluted with 48 μL of a mixture named “Supersol,” which consists of 20% ethanol, 0.5% Triton X-100, 5 mM EDTA, 0.5 mM o-phenanthroline, and 0.1% saponin. […] The resulting solutions were analyzed by radio-HPLC (same system as that used for analyzing the ^64Cu-labelings).

[8] = Small animal PET/CT imaging; parameters: species or system mice; conditions: mouse, in vivo, TAC for heart, two-phase decay
How it was run: as §1

Row | SMILES | binding to HSA or other plasma proteins [1] | time of highest tumor uptake [3] | Hill coefficient n [4] | kon [5] [M⁻¹ s⁻¹] | koff [5] [s⁻¹] | CHI IAM7.4 [6] | other results
1 | COCC[C@@H]1NC(=O)[C@@H]2CSCCC(=O)N3CN(CN(C3)C(=O)CCSC[C@H](NC(=O)CC[C@H](C(=O)O)N3CCN(CC(=O)O)CCN(CC(=O)O)CC3)C(=O)N3CCC[C@H]3C(=O)N[C@@H](Cc3cccc4ccccc34)C(=O)N[C@H](CC(=O)O)C(=O)N2)C(=O)CCSC[C@@H](C(N)=O)NC(=O)[C@H](Cc2c[nH]c3ccccc23)NC(=O)[C@@H]2C[C@@H](O)CN2C(=O)[C@@H]2CCCN2C(=O)[C@H]([C@@H](C)O)NC(=O)[C@H](CO)NC(=O)[C@H](Cc2c[nH]c3ccccc23)NC(=O)[C@H](CC(=O)O)NC(=O)[C@H](CCCCNC(=N)N)NC1=O [[^64Cu]Cu-4] [metal not drawn] (X1-CP[1Nal][dD]C[hSer](Me)[hArg]DWSTP[Hyp]WC-NH2; linker 1-5-15 via TATA) | negligible binding capability | 12.5 min |  |  |  |  | logD 7.4 ([2]; pH 7.4): −2.76; body retention at 2 h p.i. [3]: 40–42%
2 | CSCC[C@@H]1NC(=O)[C@@H]2CSCCC(=O)N3CN(CN(C3)C(=O)CCSC[C@H](NC(=O)CC[C@H](C(=O)O)N3CCN(CC(=O)O)CCN(CC(=O)O)CC3)C(=O)N3CCC[C@H]3C(=O)N[C@@H](Cc3ccc4ccccc4c3)C(=O)N[C@H](CC(=O)O)C(=O)N2)C(=O)CCSC[C@@H](C(N)=O)NC(=O)[C@H](Cc2c[nH]c3ccccc23)NC(=O)[C@@H]2C[C@@H](O)CN2C(=O)[C@@H]2CCCN2C(=O)[C@H]([C@@H](C)O)NC(=O)[C@H](CO)NC(=O)[C@H](Cc2c[nH]c3ccccc23)NC(=O)[C@H](CC(=O)O)NC(=O)[C@H](CCCNC(=N)N)NC1=O [8a] (X1-CP[2Nal][dD]CMRDWSTP[Hyp]WC-NH2; linker 1-5-15 via TATA) |  |  | 0.99 | 680000 | 0.0433 | 20.3 | fold lower binding affinity compared to 1e ([4]; FA K d ratio): 30 fold; logD ([2]; pH 7.4, logD 7.4): -2.48; Kd (HT-1376 cells): 51.7 nM
3 | C[Se]CC[C@@H]1NC(=O)[C@@H]2CSCCC(=O)N3CN(CN(C3)C(=O)CCSC[C@H](NC(=O)CC[C@H](C(=O)O)N3CCN(CC(=O)O)CCN(CC(=O)O)CC3)C(=O)N3CCC[C@H]3C(=O)N[C@@H](Cc3cccc4ccccc34)C(=O)N[C@H](CC(=O)O)C(=O)N2)C(=O)CCSC[C@@H](C(N)=O)NC(=O)[C@H](Cc2c[nH]c3ccccc23)NC(=O)[C@@H]2C[C@@H](O)CN2C(=O)[C@@H]2CCCN2C(=O)[C@H]([C@@H](C)O)NC(=O)[C@H](CO)NC(=O)[C@H](Cc2c[nH]c3ccccc23)NC(=O)[C@H](CC(=O)O)NC(=O)[C@H](CCCCNC(=N)N)NC1=O [compound 5] (X1-CP[1Nal][dD]C[SeMet][hArg]DWSTP[Hyp]WC-NH2; linker 1-5-15 via TATA) |  |  | 1.69 |  |  | 19.5 | logD 7.4 ([2]; ^64Cu-labeled ligand, n-octanol/PBS pH 7.4, ±SD): –2.37 (±0.07)
4 | COCC[C@@H]1NC(=O)[C@@H]2CSCCC(=O)N3CN(CN(C3)C(=O)CCSC[C@H](NC(=O)CC[C@H](C(=O)O)N3CCN(CC(=O)O)CCN(CC(=O)O)CC3)C(=O)N3CCC[C@H]3C(=O)N[C@@H](Cc3cccc4ccccc34)C(=O)N[C@H](CC(=O)O)C(=O)N2)C(=O)CCSC[C@@H](C(N)=O)NC(=O)[C@H](Cc2c[nH]c3ccccc23)NC(=O)[C@@H]2C[C@@H](O)CN2C(=O)[C@@H]2CCCN2C(=O)[C@H]([C@@H](C)O)NC(=O)[C@H](CO)NC(=O)[C@H](Cc2c[nH]c3ccccc23)NC(=O)[C@H](CC(=O)O)NC(=O)[C@H](CCCCNC(=N)N)NC1=O [[^64Cu]Cu-4, metal not drawn] (X1-CP[1Nal][dD]C[hSer](Me)[hArg]DWSTP[Hyp]WC-NH2; linker 1-5-15 via TATA) |  |  |  |  |  |  | half-life [7]: 412 min; Kd ([1]; human): > 600000 nM; half-life ([8]; distribution phase, read-out: Blood half life fast): 1.3 ± 0.17 min; half-life ([8]; elimination phase, read-out: Blood half life slow): 32 ± 2.09 min
5 | CSCC[C@@H]1NC(=O)[C@@H]2CSCCC(=O)N3CN(CN(C3)C(=O)CCSC[C@H](NC(=O)CC[C@H](C(=O)O)N3CCN(CC(=O)O)CCN(CC(=O)O)CC3)C(=O)N3CCC[C@H]3C(=O)N[C@@H](Cc3cccc4ccccc34)C(=O)N[C@H](CC(=O)O)C(=O)N2)C(=O)CCSC[C@@H](C(N)=O)NC(=O)[C@H](Cc2c[nH]c3ccccc23)NC(=O)[C@@H]2C[C@@H](O)CN2C(=O)[C@@H]2CCCN2C(=O)[C@H]([C@@H](C)O)NC(=O)[C@H](CO)NC(=O)[C@H](Cc2c[nH]c3ccccc23)NC(=O)[C@H](CC(=O)O)NC(=O)[C@H](CCCCNC(=N)N)NC1=O [[^64Cu]Cu-1e] [metal not drawn] | negligible binding capability | ≈ 6 min |  |  |  |  | Percent fast [%] [3]: 86.95 ±2.10%
6 | CSCC[C@@H]1NC(=O)[C@@H]2CSCCC(=O)N3CN(CN(C3)C(=O)CCSC[C@H](NC(=O)CC[C@H](C(=O)O)N3CCN(CC(=O)O)CCN(CC(=O)O)CC3)C(=O)N3CCC[C@H]3C(=O)N[C@@H](Cc3cccc4ccccc34)C(=O)N[C@H](CC(=O)O)C(=O)N2)C(=O)CCSC[C@@H](C(N)=O)NC(=O)[C@H](Cc2c[nH]c3ccccc23)NC(=O)[C@@H]2C[C@@H](O)CN2C(=O)[C@@H]2CCCN2C(=O)[C@H]([C@@H](C)O)NC(=O)[C@H](CO)NC(=O)[C@H](Cc2c[nH]c3ccccc23)NC(=O)[C@H](CC(=O)O)NC(=O)[C@H](CCCNC(=N)N)NC1=O [compound 10] (X1-CP[1Nal][dD]CMRDWSTP[Hyp]WC-NH2; linker 1-5-15 via TATA) |  |  | 2.05 | 1.11e+06 | 0.00278 | 19.9 | 
